# Test results as given in patent publication EP3468532B1, “DISPENSING DEVICE AND PHARMACEUTICAL COMPOSITION FOR THE TREATMENT OF RHINITIS” (Glenmark Specialty S.A., priority 2017, dated 2019).
# Read-outs that look alike come from different tables or passages of the source.
# Experiments:
# [1] = human, in vivo
# Procedure: (§1) The pharmacokinetics of olopatadine in a fixed dose combination of mometasone furoate and olopatadine hydrochloride nasal spray was evaluated in a clinical trial. The clinical trial was a randomized, single-center, single-dose, open-label, three-period, six-sequence, cross-over study to evaluate three treatments administered as a nasal spray. The three treatments included a combination of mometasone furoate and olopatadine hydrochloride nasal spray, olopatadine hydrochloride nasal spray and PATANASE® nasal spray.
# (§2) The study consisted of a screening visit, 3 single-dose treatment periods with washout periods of 7 to 14 days between dosing in each treatment period, an early withdrawal visit if applicable, and a follow-up telephone call (or visit) 1 to 7 days after completing the third treatment period.
# (§3) A total of 30 subjects were randomized to 1 of 6 treatment sequences and received at least 1 dose of study drug. All 30 subjects were included in the safety analysis set and the pharmacokinetic subset. All but 2 subjects completed the study per protocol.
# [2] = Example 7: Phase III clinical study, plasma pharmacokinetics of TP-1; type: in vivo, human; settings: for AUC / Cmax / Tmax: human, plasma; for Tmax: read-out: Tmax, Median (range)
# Source text: This study consisted of four visits to the study site. After the initial screening visit (Visit 1), subjects who met all study selection criteria were required to undergo a single-blind placebo run-in period for 7-10 days. Following the completion of the run-in period, eligible subjects meeting the randomization criteria were enrolled and randomized to one of the four treatment arms. Subjects were dispensed medication as per the randomization list. Randomized subjects were required to undergo a 2 week (14 days) treatment period as per the protocol to assess the efficacy and safety of the assigned treatment. Subjects were instructed to record the symptom scores in a symptom assessment diary. They were also scheduled to have at least two blood samples for PK assessment during the treatment period.
# • Plasma PK: Maximum plasma concentration (Cmax), time to attain Cmax (Tmax), and area under the plasma concentration-time curve over the dosing interval (AUCtau) will be estimated for mometasone furoate and olopatadine on Day 1 and Day 8 based on the pharmacokinetic analysis set (PKAS).
# The pharmacokinetics (PK) of TP-1 were measured for a subset of patients in the phase III clinical study on day 1 and day 8 (steady state).
# [3] = Example 11: single-dose cross-over study, pharmacokinetics of mometasone furoate; type: in vivo, human
# Procedure: as §1, with “of mometasone furoate” for “of olopatadine”, “administered by” for “administered as a”, “spray, mometasone furoate” for “spray, olopatadine hydrochloride”, “and Nasonex®” for “and PATANASE®”
# as §2, §3
# [4] = patients receiving TP-1, Day 8 (steady state)
# [5] = human, in vivo, inhaled or intranasal, mometasone furoate in fixed dose combination nasal spray, single dose
smiles,measurement,setting,value
CN(C)CC/C=C1/c2ccccc2COc2ccc(CC(=O)O)cc21 [Olopatadine],Quantifiable concentrations observed until the last time point,[1],48 h
same,AUC,"[2]; olopatadine in plasma, patients receiving TP-1, Day 1, read-out: AUCtau, Geo Mean (Geo CV%)",72.9 ng·h/mL
same,AUC,"[2]; olopatadine in plasma, patients receiving TP-1, Day 1, read-out: AUCtau, Mean (SD)",75.5 ng·h/mL
same,AUC,"[2]; olopatadine in plasma, patients receiving TP-1, Day 1, read-out: AUCtau, Min-Max",39.3 to 117 ng·h/mL
same,Cmax,"[2]; olopatadine in plasma, patients receiving TP-1, Day 1, read-out: Cmax, Geo Mean (Geo CV%)",18.8 ng/mL
same,Cmax,"[2]; olopatadine in plasma, patients receiving TP-1, Day 1, read-out: Cmax, Mean (SD)",19.8 ng/mL
same,Cmax,"[2]; olopatadine in plasma, patients receiving TP-1, Day 1, read-out: Cmax, Min-Max",8.7 to 31.6 ng/mL
same,AUC,"[2]; olopatadine in plasma, patients receiving TP-1, Day 8 (steady state), read-out: AUCtau, Geo Mean (Geo CV%)",85.7 ng·h/mL
same,AUC,"[2]; olopatadine in plasma, patients receiving TP-1, Day 8 (steady state), read-out: AUCtau, Mean (SD)",88.8 ng·h/mL
same,AUC,"[2]; olopatadine in plasma, patients receiving TP-1, Day 8 (steady state), read-out: AUCtau, Min-Max",53.4 to 138 ng·h/mL
same,Cmax,"[2]; olopatadine in plasma, patients receiving TP-1, Day 8 (steady state), read-out: Cmax, Geo Mean (Geo CV%)",18.7 ng/mL
same,Cmax,"[2]; olopatadine in plasma, patients receiving TP-1, Day 8 (steady state), read-out: Cmax, Mean (SD)",19.8 ng/mL
same,Cmax,"[2]; olopatadine in plasma, patients receiving TP-1, Day 8 (steady state), read-out: Cmax, Min-Max",9.67 to 37.3 ng/mL
same,Tmax,"[2]; patients receiving TP-1, Day 1",1 h
same,"Tmax, Median (range)",[2]; [4],1.00 (0.25-2) hour
C[C@@H]1C[C@H]2[C@@H]3CCC4=CC(=O)C=C[C@]4(C)[C@@]3(Cl)[C@@H](O)C[C@]2(C)[C@@]1(OC(=O)c1ccco1)C(=O)CCl [Mometasone furoate],AUC,"[2]; mometasone furoate in plasma, patients receiving TP-1, Day 1, read-out: AUCtau, Geo Mean (Geo CV%)",0.0262 ng·h/mL
same,AUC,"[2]; mometasone furoate in plasma, patients receiving TP-1, Day 1, read-out: AUCtau, Mean (SD)",0.0286 ng·h/mL
same,AUC,"[2]; mometasone furoate in plasma, patients receiving TP-1, Day 1, read-out: AUCtau, Min-Max",0.0121 to 0.0725 ng·h/mL
same,Cmax,"[2]; mometasone furoate in plasma, patients receiving TP-1, Day 1, read-out: Cmax, Geo Mean (Geo CV%)",0.00627 ng/mL
same,Cmax,"[2]; mometasone furoate in plasma, patients receiving TP-1, Day 1, read-out: Cmax, Mean (SD)",0.00678 ng/mL
same,Cmax,"[2]; mometasone furoate in plasma, patients receiving TP-1, Day 1, read-out: Cmax, Min-Max",0.00267 to 0.0128 ng/mL
same,AUC,"[2]; mometasone furoate in plasma, patients receiving TP-1, Day 8 (steady state), read-out: AUCtau, Geo Mean (Geo CV%)",0.0527 ng·h/mL
same,AUC,"[2]; mometasone furoate in plasma, patients receiving TP-1, Day 8 (steady state), read-out: AUCtau, Mean (SD)",0.0584 ng·h/mL
same,AUC,"[2]; mometasone furoate in plasma, patients receiving TP-1, Day 8 (steady state), read-out: AUCtau, Min-Max",0.0257 to 0.124 ng·h/mL
same,Cmax,"[2]; mometasone furoate in plasma, patients receiving TP-1, Day 8 (steady state), read-out: Cmax, Geo Mean (Geo CV%)",0.00917 ng/mL
same,Cmax,"[2]; mometasone furoate in plasma, patients receiving TP-1, Day 8 (steady state), read-out: Cmax, Mean (SD)",0.00992 ng/mL
same,Cmax,"[2]; mometasone furoate in plasma, patients receiving TP-1, Day 8 (steady state), read-out: Cmax, Min-Max",0.00358 to 0.0161 ng/mL
same,Tmax,"[2]; patients receiving TP-1, Day 1",1 h
same,"Tmax, Median (range)",[2]; [4],1.00 (0.25-2) hour
same,AUC(0-t),[3]; [5],0.085 ng·h/mL
same,Cmax,[3]; [5],0.0108 ng/mL
same,Tmax,[3]; [5],1 h
same,AUC(0-inf),"[3]; human, in vivo, inhaled or intranasal, mometasone furoate in fixed dose combination nasal spray, single dose, read-out: AUC(0-infinity)",0.104 ng·h/mL
same,Quantifiable concentrations observed until the last time point,[3]; single dose nasal spray,72 h
